How the values were obtained:
protein kinase C = test: Protein kinase C (PKC) inhibition assay (histone H1 phosphorylation); format: biochemical; details: rat brain PKC, histone H1 substrate
Description: The protein kinase C (PKC) assay is designed to duplicated the in vivo conditions required for protein kinase C function. Therefore, pH, salt and cofactor concentrations are similar to physiologic levels. Histone H1 (lysine rich) is used in the assay as the phosphorylation acceptor protein because it is readily available and serves as a good substrate for protein kinase C. The enzyme is prepared from rat brain and is purified to apparent homogeneity as determined by a single band on silver stained SDS-polyacrylamide. Studies on the mechanism of regulation of protein kinase C by phospholipids, DAG and Ca^+2 have been hampered by the physical properties of the lipid cofactors. In the screening assay, phosphatidylserine (PS) and DAG are cosonicated to form unilamellar and multilamellar vesicles. The concentration of lipids in the assay are suboptimal to maximize the detection potential of the assay for inhibitors. […] The assay is started with the addition of enzyme and stopped after 10 min by the addition of 25% trichloroacetic acid (TCA) and 1.0 mg/ml bovine serum albumin (BSA). The radioactive histone product is retained and washed on glass fiber filters that allow the unreacted ^32 P-ATP to pass through. The amount of phosphorylation is determined by the radioactivity measured in a scintillation counter. Controls are included in every assay to measure background activity in the absence of enzyme, activity in the absence of lipids and the maximum enzyme activity with saturating levels of the activator lipids.

[1] = test system: MCF-7 human breast tumor cell line; test: Human tumor growth inhibition, 3H-thymidine incorporation, MCF-7; format: cell-based; details: 3H-thymidine uptake; read-out: IC50 MCF-7
Description: (§1) MCF-7 a human breast tumor cell line, and MCF-7/ADR an adriamycin resistant line of MCF-7 cells were obtained from the National Cancer Institute, Frederick, Md. NHEK a human keratinocyte cell line was obtained from Clonetic Corp., San Diego, Calif. 8226 a human myeloma cell line, 8226/MT a Mitoxantrone resistant line of 8226 cells, and 8226 ADR an adriamycin resistant line of 8226 cells were obtained from Dr. Bill Dalton, Arizona Cancer Center, Tuscon, Ariz.
(§2) Human tumor cells are trypsinized (0.05% trypsin, GIBCO), counted with a hemacytometer and seeded at a concentration of 10,000 cells/well in a 96 well microtiter plate. After allowing cells to attach to the surface overnight, the culture medium is aspirated and replaced with 100 μl of fresh medium. Test agents are diluted to determine dose response at 2× final concentration and added in quadruplicate at 100 μl/well to bring the total volume of each well to 200 μl. The microtiter plate is then incubated at 37° C. 5% CO2 overnight (18-24 hrs) before ^3 H-thymidine is added at a concentration of 0.5 μCi/well in 50 μl culture medium. The plate is incubated again for 4 hrs under the same conditions as above. Supernatant is then aspirated and 50 μl trypsin (0.05%, GIBCO) is added to each well. Cells are checked microscopically to determine detachment from surfaces, and plates are then harvested with a cell harvester (PHD, Cambridge Technology, Inc.) Filter papers corresponding to wells are placed in scintillation vials and counted to determine the amount of ^3 H-thymidine incorporated by the cells. Test agent response is compared to a positive control of cell wells with culture media only to determine the IC50. IC50 is the concentration of test compound required to inhibit fifty percent of the incorporation of ^3 H-thymidine into proliferating cells not exposed to test agent. Uptake of ^3 H-thymidine is a standard test for measuring the metabolism of cells. Cells which are actively proliferating take up ^3 H-thymidine, whereas cells that are not proliferating take up ^3 H-thymidine at much slower rates or not at all. Test agents that inhibit the uptake of ^3 H-thymidine thus slow the growth of cells.

[2] = test system: 8226 human myeloma cell line; test: Human tumor growth inhibition, 3H-thymidine incorporation, 8226; format: cell-based; details: 3H-thymidine uptake, read-out: IC50 8226
Description: as §1, §2

[3] = test system: 8226/ADR adriamycin resistant line of 8226 cells; test: Human tumor growth inhibition, 3H-thymidine incorporation, 8226/ADR; format: cell-based; details: 8226/ADR vs 8226
Description: as §1, §2

NHEK human keratinocytes = test: Human keratinocyte inhibition, 3H-thymidine incorporation; format: cell-based
Description: Human tumor cells are trypsinized (0.05% trypsin, GIBCO), counted with a hemacytometer and seeded at a concentration of 10,000 cells/well in a 96 well microtiter plate. After allowing cells to attach to the surface overnight, the culture medium is aspirated and replaced with 100 μl of fresh medium. Test agents are diluted to determine dose response at 2× final concentration and added in quadruplicate at 100 μl/well to bring the total volume of each well to 200 μl. The microtiter plate is then incubated at 37° C. 5% CO2 overnight (18-24 hrs) before ^3 H-thymidine is added at a concentration of 0.5 μCi/well in 50 μl culture medium. The plate is incubated again for 4 hrs under the same conditions as above. […] Cells are checked microscopically to determine detachment from surfaces, and plates are then harvested with a cell harvester (PHD, Cambridge Technology, Inc.) Filter papers corresponding to wells are placed in scintillation vials and counted to determine the amount of ^3 H-thymidine incorporated by the cells. […]
Proliferating keratinocytes (NHEK cells purchased from Clonetics, Inc. San Diego, Calif.) in second passage were grown in Keratinocyte Growth Medium (KGM) (Clonetics, Inc.) Cells were trypsinized with 0.025% trypsin (Clonetics), counted with a hemacytometer (Scientific Products), and seeded at a concentration of 2,500 cells/well in a 96 well microtiter plate. […]

human neutrophils = test: Neutrophil superoxide anion (O2-) release assay, PMA-stimulated; format: cell-based; details: Homo sapiens, Neutrophil, PMA-stimulated O2- production
Description: Neutrophils were isolated form whole blood collected from human volunteers. All reagent materials were obtained from Sigma Chemical Company with the exception of isotonic saline (Travenol Lab., Inc. Deerfield, Ill.) and lymphocyte separation medium (Organon Teknika, Durham, N.C.). Whole blood was drawn and mixed with sodium heparin (final conc. 10 units/ml) to prevent clotting. An equal volume of dextran (3.0%) in isotonic saline was added, mixed, and allowed to settle for 30 min to bind red blood cells (RBC). The supernatant was removed, underlayered with lymphocyte separation medium and centrifuged for 40 min at 400 xg in a centrifuge (Beckman GPR, Norcross, Ga.). […] The washed pellet was resuspended in 10 ml HBSS and placed on ice before counting on a hemacytometer. The neutrophil cell concentration is adjusted to 2×10^6 cells/ml with HBSS before adding 0.8 ml cells to 12×75 mm polypropylene test tubes (Fisher Scientific). Test agents are diluted to determine dose response and added at 10×final concentration at a volume of 0.1 ml/tube in duplicate. […] Tubes are then centrifuged at 900 xg for 10 min, 0.5 ml supernatant is removed and added to 0.5 ml H2 O in a microcuvette. Optical density (OD) of cytochrome c is read in a spectrophotometer (Shimadzu) at 550 nm. The ΔOD of cytochrome c is obtained between PMA-stimulated and non-stimulated tubes, and the dose responses of the test agents are compared to the positive controls (which contain HBSS in place of test agents). PMA stimulates O2^- production which reduces cytochrome c. Reducing cytochrome c increases its absorbance, and the change in OD of cytochrome c is proportional to the amount of O2^- produced by PMA stimulation. Inhibition of the O2^- burst by test compounds of the invention is seen as a reduction in the change in optical density. Inhibition is expressed as IC50 μM and is the amount of test compound that will inhibit fifty percent of the PMA-stimulated respiratory outburst, i.e. O2^- production.

[4] = test system: MCF-7 human mammary carcinoma xenografts; test: MCF-7 human mammary carcinoma xenografts in athymic nude mice; format: in vivo, mouse (human tumor xenograft); details: FIG. 4
[5] = test system: MCF-7/ADR adriamycin resistant line of MCF-7 cells; test: Human tumor growth inhibition, 3H-thymidine incorporation, MCF-7/ADR; format: cell-based; details: NCI/ADR-RES, 3H-thymidine uptake

What does the source list for CCN(CC)CC(O)CNc1ccc(NCC2CO2)c2c1C(=O)c1ccccc1C2=O (stereo not shown) [Compound 1b-1, 1-(3-diethylamino-2-hydroxypropylamino)-4-(2,3-epoxypropylamino)-9, 10-anthracenedione]?
IC50 (protein kinase C): 110000 nM; IC50 [1]: 25 nM; IC50 [2]: 60 nM; Resistance Ratio (8226/ADR) [3]: 0.26; IC50 (NHEK human keratinocytes): 40 nM; IC50 (human neutrophils): > 25000 nM; median tumor weight vs control mice (in words) ([4]; at stabilization): significantly lower than the weight of the control mice; day at which tumor growth was stabilized ([4]; iv, once every four days, five injections): ~30 days; day until which median tumor weight remained stable ([4]; then tumor regrowth): ~38 days; IC50 [5]: 60 nM

From patent US5344841A, “Bis-(hydroxylakylamino)-anthraquinone inhibitors of protein kinase C” (Sphinx Pharmaceuticals Corporation, priority 1992, dated 1994)
